{"source": "patent US8754047B2", "about": "“Peptide compositions and methods of use” (The Research Foundation for the State University of New York, priority 2008, dated 2014)", "key": {"[1]": {"tested_on": "SW480 human colon cancer cells", "assay": "In vitro cell viability assay by MTT / cell Titer-Glo, SW480", "conditions": "24 h", "experimental": "10,000 HT29 or SW480 human colon cancer cells, BxPC-3 human pancreatic cancer cells, and MCF7 and MDA-MB-231 breast cancer cells were obtained from American Type Culture Collection (ATTC), Manassas, Va., and were seeded in separate 96-well plates. After treatment with various concentrations (6.25 μM, 12.5 μM, 25 μM, 50 μM, 100 μM, or 200 μM) of test peptide for 24 h, cells were stained with MTT (3-(4,5-Dimethyl-2-thiazolyl)-2,5-diphenyl-2H-tetrazolium bromide, from Sigma-Aldrich) following the instructions of the manufacturer. Before dissolving MTT in SDS, the HT29 and SW480 cells were photographed using a digital camera connected with a phase-contrast microscope. (FIG. 2A1-8, and FIG. 2B1-6). Cells that are alive convert MTT into formazan in their active mitochondria and appear dark purple; dead cells are not stained by MTT and appear colorless.\nThe IC50 is the concentration of the test agent that inhibits cell growth by 50% at 24 hours of exposure. IC50s were determined using the MTT assay or using the cell Titer-Glo method and following the instructions of the manufacturer ([…]). […] (Sun, Y., and Rigas, B., (2008), Cancer Res., 68(20): 8269-8277).\nThe effect of peptide YJB02 on SW480 colon cancer cells was compared to the effect of peptide YJB02 on the normal human colon epithelial cell line NCM460. […] The viability was determined as described in Example 2."}, "[2]": {"tested_on": "HT29 human colon cancer cells", "format": "cell-based", "conditions": "inhibits cell growth by 50% at 24 hours of exposure; MTT or cell Titer-Glo; read-out: IC50s, HT29", "from_the_text": "(FIG. 2A1-8, and FIG. 2B1-6)."}, "[3]": {"tested_on": "MCF-7 human breast cancer cells", "assay": "Flow cytometry forward/side scatter, proportion of dead cells, MCF7", "format": "cell-based", "conditions": "200 μM, 24 hr", "experimental": "SW480 human colon cancer cells and MCF7 breast cancer cells were grown following the instructions of American Type Culture Collection (ATCC, Monassas, Va.). The cells were treated with the test peptides (YJB01, YJB05, or YJB06) for 24 hrs at concentrations ranging from 0 μM, to 200 μM and subjected to flow cytometric analysis following standard protocols.\nSW480 human colon cancer cells and MCF7 breast cancer cells were grown following the instructions of American Type Culture Collection (ATCC, Monassas, Va.). The cells were treated with the test peptides for 24 hrs at concentrations ranging from 0 μM, to 200 μM and subjected to flow cytometry analysis following standard protocols. […] The circumscribed (gated, outlined) areas in the figure indicate dead cells; dead cells generally have higher density (side scatter) and smaller size (forward scatter) than living cells."}, "peroxiredoxin 1": {"tested_on": "peroxiredoxin 1", "assay": "Oxidized peroxiredoxin 1 (Prx-O3) immunoblot in SW480 cells", "format": "cell-based, human", "conditions": "1 h, YJB01 20 μM and 100 μM, YJB05 100 μM", "experimental": "(§1) The oxidized peroxiredoxin 1 (sulphonic-peroxiredoxin, Prx-O3) was detected by using the specific anti-Prx-O3 antibody. Briefly, after SW480 cells were treated with either no peptide, with YBJ01 (at 20 μM and 100 μM), or with YJB05 (at 100 μM) for 1 h, total cell lysates were collected and separated on the SDS-PAGE gel. The gel was electroblotted onto a nitrocellulose membrane and probed with anti-Prx-O3, followed by HRP-conjugated secondary antibody. Bands corresponding to sulphonic-peroxiredoxin were visualized by ECL\nas §1, with “anti-Prx-O3 antibody” for “anti-Prx-O3 antibody.”, “with YBJ05” for “with YJB05”"}, "[4]": {"tested_on": "SW480 human colon cancer xenografts", "assay": "SW480 human colon cancer xenografts in nude mice, tumor volume", "format": "in vivo", "conditions": "for reduction in tumor volume: vs vehicle", "experimental": "(§2) Xenografts were generated as described in FIG. 3A-B and Example 3 except where noted. Each animal had two xenografts, one on its right flank and one on the left. In these studies, the effect of two doses of YJB01, 100 μg and 500 μg per animal were evaluated. The doses were administrated intraperitoneally once a day dissolved in phosphate buffered saline (PBS). Control animals were injected with PBS. Tumor volume was determined as described in Example 3. Tumor volume is expressed as mean±SEM.\nas §2, with “the” for “FIG. 3A-B and”\nXenografts were generated as described in the Example 3 except that 8 Balb/c nude mice in each group were used in this experiment. Nude mice bearing SW480 xenografts were treated with 500 μg/day of YJB02 for 19 days. The doses were administrated intraperitoneally once a day dissolved in phosphate buffered saline (PBS). Control animals were treated with PBS.\nTumor volume was determined as described in Example 3. Tumor volume was monitored and graphed as set forth in FIG. 9A, and is expressed as mean±SEM."}, "[5]": {"conditions": "500 μg intraperitoneally once a day for 10 days"}}, "note": "pIC50: −log10 of the molar value. Entries after “also recorded” stand apart in the source; their conditions may differ. Positions of bridges follow the written chain, without caps; N, C: chain ends. Residues, ends and D or L forms follow the SMILES beside them.", "data": [{"smiles": "CC[C@H](C)[C@H](NC(=O)[C@H](CCCCN)NC(=O)[C@@H](NC(=O)[C@H](CCC(N)=O)NC(=O)[C@H](CCCNC(=N)N)NC(=O)[C@@H]1CCCN1C(=O)[C@H](CCCCN)NC(=O)[C@@H]1CSSC[C@H](NC(=O)[C@H](Cc2c[nH]c3ccccc23)NC(=O)[C@@H](NC(=O)[C@H](C)N)[C@@H](C)O)C(=O)NCC(=O)N2CCC[C@H]2C(=O)N1)[C@@H](C)CC)C(=O)N[C@@H](Cc1c[nH]c2ccccc12)C(=O)N[C@@H](Cc1ccccc1)C(=O)N[C@@H](CCC(N)=O)C(=O)N[C@@H](CC(N)=O)C(=O)N[C@@H](CCCNC(=N)N)C(=O)N[C@@H](CCCNC(=N)N)C(=O)N[C@@H](CCSC)C(=O)N[C@@H](CCCCN)C(=O)N[C@@H](Cc1c[nH]c2ccccc12)C(=O)N[C@@H](CCCCN)C(=O)N[C@@H](CCCCN)C(=O)O", "note": "[YJB01] (H-ATWCGPCKPRQIKIWFQNRRMKWKK-OH; disulfide 4-7; N-terminus and C-terminus assumed)", "values": [{"measurement": "pIC50", "setting": "[1]", "result": 4.46}, {"measurement": "pIC50", "setting": "[2]", "result": 4.05}, {"measurement": "dead cells, MCF7", "setting": "[3]", "result": 72.12, "unit": "%"}, {"measurement": "induction of the oxidized form of peroxiredoxin 1", "setting": "peroxiredoxin 1", "result": "induced the oxidized form of peroxiredoxin; also recorded: capable of inducing oxidation"}, {"measurement": "reduction in tumor volume", "setting": "[4]; 100 μg intraperitoneally once a day for 21 days", "result": 32, "unit": "%"}, {"measurement": "tumor volume", "setting": "[4]; 100 μg intraperitoneally once a day for 21 days, vehicle 776 mm^3", "result": 527, "unit": "mm^3"}, {"measurement": "tumor volume compared to its baseline", "setting": "[4]; [5]", "result": "caused tumor regression"}, {"measurement": "reduction in tumor volume", "setting": "[4]; [5]", "result": 60, "unit": "%"}, {"measurement": "tumor volume", "setting": "[4]; 500 μg intraperitoneally once a day for 10 days, vehicle 257 mm^3", "result": 102, "unit": "mm^3"}]}]}
